Data taken from ChEMBL document CHEMBL1123417, “New structure-activity relationships of the quinolone antibacterials using the target enzyme. The development and application of a DNA gyrase assay” (J Med Chem, 1986).
In brackets after ≈: the same amount, converted by molar mass.

Assays:
[1] = target: DNA gyrase (Escherichia coli) (UniProt P0AES6+P0AES4)
Escherichia coli [2] = assay: Antibacterial activity against Escherichia coli (vogel)
Escherichia coli [3] = assay: Antibacterial activity against Escherichia coli (H560)
Pseudomonas aeruginosa = assay: Antibacterial activity against Pseudomonas aeruginosa (UI-18)
Staphylococcus aureus = assay: Antibacterial activity against Staphylococcus aureus (H228)
Klebsiella pneumoniae = assay: Antibacterial activity against Klebsiella pneumonia (MGH-2)
Streptococcus pneumoniae = assay: Antibacterial activity against Streptococcus pneumoniae (SV-1)

Row | SMILES | gyrase cleavage conc [1] | MIC (Escherichia coli [2]) | MIC (Escherichia coli [3]) | MIC (Pseudomonas aeruginosa) | MIC (Staphylococcus aureus) | MIC (Klebsiella pneumoniae) | MIC (Streptococcus pneumoniae)
1 | CCn1cc(C(=O)O)c(=O)c2ccc(/C=N/O)nc21 | 100 µg/mL | 12.5 µg/mL (≈ 47.8 µM) | > 100 µg/mL | 100 µg/mL (≈ 383 µM) | 50 µg/mL (≈ 191 µM) | 12.5 µg/mL (≈ 47.8 µM) | 100 µg/mL (≈ 383 µM)
2 | CCn1cc(C(=O)O)c(=O)c2cc(F)c(N3CCN(CC#N)CC3)cc21 | 10 µg/mL | 0.4 µg/mL (≈ 1.12 µM) | 0.8 µg/mL (≈ 2.23 µM) | 6.3 µg/mL (≈ 17.6 µM) | 1.6 µg/mL (≈ 4.46 µM) | 0.8 µg/mL (≈ 2.23 µM) | 6.3 µg/mL (≈ 17.6 µM)
3 | CCn1cc(C(=O)O)c(=O)c2c(N)nc(N3CCNCC3)nc21 | 100 µg/mL | 6.3 µg/mL (≈ 19.8 µM) | 3.1 µg/mL (≈ 9.74 µM) | 25 µg/mL (≈ 78.5 µM) | 50 µg/mL (≈ 157 µM) | 25 µg/mL (≈ 78.5 µM) | 50 µg/mL (≈ 157 µM)
4 | CC1COc2c(N3CCN(C)CC3)c(F)cc3c(=O)c(C(=O)O)cn1c23 (configuration not stated) | 5 µg/mL | – | – | – | – | – | –
5 | CCn1cc(C(=O)O)c(=O)c2cc(F)c(/C=N/N3CCN(C)CC3)nc21 | 100 µg/mL | 25 µg/mL (≈ 69.2 µM) | 50 µg/mL (≈ 138 µM) | > 100 µg/mL | 25 µg/mL (≈ 69.2 µM) | 25 µg/mL (≈ 69.2 µM) | 100 µg/mL (≈ 277 µM)
6 | CCn1cc(C(=O)O)c(=O)c2cc(F)c(N3CCN(C(C)=N)CC3)cc21 | 2.5 µg/mL | 0.8 µg/mL (≈ 2.22 µM) | 0.2 µg/mL (≈ 0.555 µM) | 1.6 µg/mL (≈ 4.44 µM) | 6.3 µg/mL (≈ 17.5 µM) | 1.6 µg/mL (≈ 4.44 µM) | 12.5 µg/mL (≈ 34.7 µM)
7 | CCn1cc(C(=O)O)c(=O)c2ccc(/C=C/N3CCN(C)CC3)nc21 | > 100 µg/mL | > 100 µg/mL | > 100 µg/mL | > 100 µg/mL | > 100 µg/mL | > 100 µg/mL | > 100 µg/mL
8 | CCn1cc(C(=O)O)c(=O)c2ccc(N3CCNCC3)nc21 | 75 µg/mL | 6.3 µg/mL (≈ 20.8 µM) | 3.1 µg/mL (≈ 10.3 µM) | 12.5 µg/mL (≈ 41.3 µM) | 50 µg/mL (≈ 165 µM) | 12.5 µg/mL (≈ 41.3 µM) | 50 µg/mL (≈ 165 µM)
9 | CCn1cc(C(=O)O)c(=O)c2cc(F)c(N3CCN(C)CC3)c(F)c21 | 2.5 µg/mL | 0.2 µg/mL (≈ 0.569 µM) | 0.1 µg/mL (≈ 0.285 µM) | 0.8 µg/mL (≈ 2.28 µM) | 0.4 µg/mL (≈ 1.14 µM) | 0.4 µg/mL (≈ 1.14 µM) | 3.1 µg/mL (≈ 8.82 µM)
10 | CCn1cc(C(=O)O)c(=O)c2cc(F)c(NC)cc21 | 18 µg/mL | 3.1 µg/mL (≈ 11.7 µM) | 3.1 µg/mL (≈ 11.7 µM) | > 100 µg/mL | 12.5 µg/mL (≈ 47.3 µM) | 6.3 µg/mL (≈ 23.8 µM) | 100 µg/mL (≈ 378 µM)
11 | CCn1cc(C(=O)O)c(=O)c2cc(F)c(N3CCN(CCCN(C)C)CC3)cc21 | 50 µg/mL | 6.3 µg/mL (≈ 15.6 µM) | 3.1 µg/mL (≈ 7.66 µM) | 12.5 µg/mL (≈ 30.9 µM) | 12.5 µg/mL (≈ 30.9 µM) | 6.3 µg/mL (≈ 15.6 µM) | 25 µg/mL (≈ 61.8 µM)
12 | CCn1cc(C(=O)O)c(=O)c2cc(F)c(N3CCSCC3)nc21 | 18 µg/mL | 1.6 µg/mL (≈ 4.74 µM) | 1.6 µg/mL (≈ 4.74 µM) | 6.3 µg/mL (≈ 18.7 µM) | 0.2 µg/mL (≈ 0.593 µM) | 3.1 µg/mL (≈ 9.19 µM) | 50 µg/mL (≈ 148 µM)
13 | CCn1cc(C(=O)O)c(=O)c2cc(F)c(N3CCSC3)cc21 | 5 µg/mL | 0.2 µg/mL (≈ 0.62 µM) | 0.2 µg/mL (≈ 0.62 µM) | 3.1 µg/mL (≈ 9.62 µM) | 0.2 µg/mL (≈ 0.62 µM) | 0.4 µg/mL (≈ 1.24 µM) | 12.5 µg/mL (≈ 38.8 µM)
14 | CCn1cc(C(=O)O)c(=O)c2cc(F)c(NCCN)nc21 | 50 µg/mL | 12.5 µg/mL (≈ 42.5 µM) | 25 µg/mL (≈ 85 µM) | 50 µg/mL (≈ 170 µM) | > 100 µg/mL | 25 µg/mL (≈ 85 µM) | > 100 µg/mL
15 | CCn1cc(C(=O)O)c(=O)c2cc(F)c(C)cc21 | 25 µg/mL | 0.2 µg/mL (≈ 0.802 µM) | 0.4 µg/mL (≈ 1.6 µM) | 12.5 µg/mL (≈ 50.2 µM) | 1.6 µg/mL (≈ 6.42 µM) | 0.2 µg/mL (≈ 0.802 µM) | 100 µg/mL (≈ 401 µM)
16 | CCn1cc(C(=O)O)c(=O)cc1/C=C/c1ccsc1 | 100 µg/mL | 25 µg/mL (≈ 90.8 µM) | 50 µg/mL (≈ 182 µM) | > 100 µg/mL | > 100 µg/mL | > 100 µg/mL | > 100 µg/mL
17 | CCn1cc(C(=O)O)c(=O)c2cc(F)c(N3CCC(N4CCN(C)CC4)CC3)cc21 | 50 µg/mL | 3.1 µg/mL (≈ 7.44 µM) | 12.5 µg/mL (≈ 30 µM) | 50 µg/mL (≈ 120 µM) | 1.6 µg/mL (≈ 3.84 µM) | 12.5 µg/mL (≈ 30 µM) | 6.3 µg/mL (≈ 15.1 µM)
18 | CCn1cc(C(=O)O)c(=O)c2ccc(/C=N/N3CCN(C)CC3)nc21 | 100 µg/mL | 12.5 µg/mL (≈ 36.4 µM) | 12.5 µg/mL (≈ 36.4 µM) | > 100 µg/mL | 12.5 µg/mL (≈ 36.4 µM) | 12.5 µg/mL (≈ 36.4 µM) | 100 µg/mL (≈ 291 µM)
19 | CCn1cc(C(=O)O)c(=O)c2cc(F)c(SCCN)cc21 | 5 µg/mL | 0.8 µg/mL (≈ 2.58 µM) | 3.1 µg/mL (≈ 9.99 µM) | 3.1 µg/mL (≈ 9.99 µM) | 25 µg/mL (≈ 80.6 µM) | 1.6 µg/mL (≈ 5.16 µM) | 25 µg/mL (≈ 80.6 µM)
20 | CCn1cc(C(=O)O)c(=O)c2cc(F)c(N3CCNCC3)cc21 | 1 µg/mL | – | – | – | – | – | –
21 | CCn1cc(C(=O)O)c(=O)c2ccc(N3CCNCC3)cc21 | 18 µg/mL | 6.3 µg/mL (≈ 20.9 µM) | 6.3 µg/mL (≈ 20.9 µM) | 25 µg/mL (≈ 83 µM) | > 50 µg/mL | 6.3 µg/mL (≈ 20.9 µM) | 50 µg/mL (≈ 166 µM)
22 | CCn1cc(C(=O)O)c(=O)c2cc(F)c(N3CCN(CCN)CC3)cc21 | 10 µg/mL | 25 µg/mL (≈ 69 µM) | 25 µg/mL (≈ 69 µM) | 50 µg/mL (≈ 138 µM) | 12.5 µg/mL (≈ 34.5 µM) | 50 µg/mL (≈ 138 µM) | 50 µg/mL (≈ 138 µM)
